According to US9827292B2, “Use of KGF in the treatment of menopausal disorders” (Università degli Studi di Roma “La Sapienza”, priority 2012, dated 2017):

B1: keratinocyte growth factor (protein, listed as Homo sapiens)
chain: MHKWILTWILPTLLYRSCFHIICLVGTISLACNDMTPEQMATNVNCSSPERHTRSYDYMEGGDIRVRRLFCRTQWYLRIDKRGKVKGTQEMKNNYNIMEIRTVAVGIVAIKGVESEFYLAMNKEGKLYAKKECNEDCNFKELILENHYNTYASAKWTHNGGEMFVALNQKGIPVRGKKTKKEQKTAHFLPMAIT
notes: human recombinant KGF (Upstate Biotechnology)

Columns and labels:
[1] = system: oestrogen response elements (EREs); assay: ERE-LUC dual-luciferase reporter assay in MCF-7 cells; type: cell-based, human; conditions: 24 h treatment, FIG. 5
Protocol: MCF-7 cells were seeded onto 24-well plates with a cell/well density of […] and were co-transfected with 1 μg of the 3×ERE TATA LUC construct, a plasmid containing the reporter gene for firefly luciferase under the control of three DNA sequences to which the ER binds, called oestrogen response elements (EREs) (Addgene), and with 300 ng of control pRL-TK plasmid (renilla luciferase) for normalisation of the efficiency of the transfection process. The transfections were carried out using lipofectamine 2000 (Invitrogen) according to manufacturer's instructions. After 6 h, the cells were treated with KGF or E2. The luciferase activity was determined using a dual-luciferase reporter assay system (Promega) 24 h after the treatment, according to manufacturer's protocol. All the transfections were conducted in triplicate.

[2] = Serum concentrations of E2 and KGF by ELISA in treated mice; type: in vivo, mouse; conditions: daily treatment for 60 days, ovariectomised mice, FIG. 7A
Protocol: The mouse strain CD1 was used in this study (Charles Rivers). The mice were held in a standard housing for laboratory animals with controlled lighting (12 h/day) and temperature (25±1° C.) and were provided with food and water ab libitum. All the experimental protocols concerning animals were in line with the Guidelines of Sapienza University for the care and use of laboratory animals and were approved by the Ethical Committee of the aforesaid institution. Forty female mice were subjected to an ovariectomy for the purpose of inducing vaginal atrophy and were administered a diet of Altromin C1000 without phytoestrogens (Altromin, Lage, Germany) for the duration of the experiments. After 30 days, the mice were treated locally, introducing daily into the vaginal canal 25 μl of hydrogel loaded with KGF (10 or 30 ng/day) or with E2 (30 ng/day or 1 μg/day). A control group was treated only with hydrogel. After 60 days of treatment, the mice were killed and the vaginas were immediately explanted, fixed in formalin and processed for histological analysis.
The concentrations of E2 and KGF in the serum of treated mice were measured using an ELISA standard kit (R & D Systems, Minneapolis, Minn., USA). The sensitivity of the ELISA assay was ≧10 pg/mL. Standard preparations of E2 or KGF were used as internal controls. The values are presented as mean±standard deviation. […]

[3] = system: KGFR; assay: KGFR protein expression by Western blot in MCF-7 cells; type: cell-based, human; conditions: E2 20 ng/ml, 24 h, FIG. 3A
Protocol: (§1) The oestrogen receptor α-positive MCF-7 human breast adenocarcinoma cell line, acquired from American Type Culture Collection (no. HTB-22, ATCC-LGC Promochem, Teddington, UK), was cultured in Dulbecco's modified eagle's medium (DMEM; Invitrogen, Karlsruhe, Germany), supplemented with 10% foetal bovine serum (FBS; Invitrogen) and antibiotics. Primary cultures of human oestrogen-sensitive keratinocytes (KCs) were established from 1 cm^2 full-thickness mucosal biopsy of the vaginal vestibule. Following enzymatic dissociation, the keratinocytes were seeded onto culture plates coated with collagen IV (10 mg/ml), as previously reported [Panici et al, 2007], and were maintained in basal medium of the keratinocytes (KBM, Lonza) supplemented with aliquots of KGM (Lonza), with medium change twice a week. […]
(§2) MCF-7 cells untreated or treated with KGF or E2 were lysed in RIPA buffer. […] The bound antibody was detected by enhanced chemiluminescence detection reagents (Pierce Biotechnology, Inc, Rockford, Ill., USA), according to manufacturer's instructions. […] Densitometric analysis was performed using Quantity One Program (Bio-Rad Laboratories srl, Segrate, MI, Italy).

[4] = system: ER alpha; assay: Western blot of ER alpha phosphorylation (Ser118) in MCF-7 cells; type: cell-based, human; conditions: 20 ng/ml, FIG. 2D
Protocol: as §1, §2

| Molecule | activation of ERE-luciferase construct (genomic pathway) [1] | release into the bloodstream (serum levels by ELISA) after local vaginal treatment [2] | KGFR protein level [3] | phosphorylation of ER alpha (Ser118) [4] |
| --- | --- | --- | --- | --- |
| C[C@]12CC[C@@H]3c4ccc(O)cc4CC[C@H]3[C@@H]1CC[C@@H]2O [E2, 17β-oestradiol] | able to determine the activation of such a construction | reached the bloodstream even after treatment at low doses | a rise in the protein KGFR |  |
| B1 | absence of stimulation of the genomic pathway of the oestrogens |  |  | able to induce, equally to E2, phosphorylation of ER alpha |
